Results on eleven compounds are retold here after ChEMBL document CHEMBL1201862, “PubChem BioAssay data set” (2004).

Some test systems named below: OVCAR-4; UACC-257; SNB-19; SF-268; SF-539; NCI/ADR-RES; COLO 205; NCI-H23; RPMI-8226; IGROV-1; MOLT-4; 786-0; A498; NCI-H522; K562; HCT-15; HCT-116; HCC 2998; SR; HL-60.
Holding throughout (assay): inhibition of tumour cell growth, NCI panel, 48 h

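Growth conditions: 96-well plates. Treatment: test compound, 48 hours, 5 concentrations. Analysis: linear interpolation between bracketing concentrations; unreached endpoints set to highest concentration. Abbreviation: GI50, concentration required for 50% inhibition of growth.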 The source made the active and inactive calls. No stated cut-off is given here; in the data, active = GI50 up to about 1.1 µM and inactive = higher. Bounds are passed on as bounds.

In the case of `O=C(O)CC(NC(=O)Nc1ccc([N+](=O)[O-])cc1)C(=O)Nc1ccc([N+](=O)[O-])cc1` (centres undefined), the GI50 is > 100 µM (inactive) in the assay on OVCAR-4; > 100 µM (inactive) in the assay on UACC-257; > 100 µM (inactive) in the assay on SNB-19; 9.44 µM (inactive) in the assay on SF-268; > 100 µM (inactive) in the assay on SF-539; > 100 µM (inactive) with NCI/ADR-RES. In addition, the GI50 in the assay with COLO 205, in the assay on NCI-H23, with RPMI-8226, with IGROV-1, in the assay on MOLT-4 and in the assay with 786-0 was > 100 µM (inactive) throughout. The GI50 was > 100 µM (inactive) with A498; > 100 µM (inactive) with NCI-H522; > 100 µM (inactive) in the assay with K562; > 100 µM in the assay on HCT-15; > 100 µM (inactive) with HCT-116; > 100 µM (inactive) in the assay on HCC 2998.

Take `CCOCN/C(N)=N\C#N`: the GI50 was > 10 µM (inactive) in the assay with OVCAR-4; > 100 µM (inactive) in the assay on UACC-257; > 100 µM (inactive) in the assay on SNB-19; > 100 µM (inactive) in the assay on SF-268; > 100 µM (inactive) with SF-539; > 100 µM (inactive) with COLO 205. Moreover, the GI50 in the assay with NCI-H23 was > 100 µM (inactive); in the assay with RPMI-8226 it was > 100 µM (inactive); in the assay with IGROV-1 it was > 100 µM (inactive); in the assay on MOLT-4, > 100 µM (inactive); in the assay on 786-0 it was 23.9 µM (inactive); with SR, 36.6 µM (inactive). Further, the GI50 was > 100 µM (inactive) in the assay with A498; > 100 µM (inactive) in the assay on NCI-H522; 66.1 µM (inactive) in the assay with K562; > 100 µM (inactive) with HL-60; 20.5 µM in the assay with HCT-15; > 100 µM (inactive) with HCT-116. The GI50 in the assay with HCC 2998 is > 100 µM (inactive).

With `NC1=Nc2ccccc2Sc2ccccc21`, the GI50 with OVCAR-4 was > 100 µM (inactive); in the assay on UACC-257, > 100 µM (inactive); in the assay with SNB-19, 87.3 µM (inactive); in the assay with SF-268, 56.9 µM (inactive); with SF-539 it was 58.5 µM (inactive); in the assay on COLO 205, > 100 µM (inactive). Also, the GI50 in the assay with NCI-H23 is > 100 µM (inactive); in the assay with RPMI-8226, 77.4 µM (inactive); with IGROV-1, > 100 µM (inactive); with MOLT-4, > 100 µM (inactive); in the assay with 786-0, > 100 µM (inactive); in the assay on SR it was > 100 µM (inactive). The GI50 in the assay with A498 was 84.9 µM (inactive); in the assay with NCI-H522, 60.3 µM (inactive); with K562 it was 82.6 µM (inactive); in the assay on HL-60 it was > 100 µM (inactive); with HCT-15, > 100 µM; with HCT-116, 35.9 µM (inactive). Besides, in the assay on HCC 2998, the GI50 was > 100 µM (inactive).

Take `CN1N=CSC12C(=O)N(c1ccc(Cl)cc1)C(=O)N2c1ccc(Cl)cc1` (centres undefined): the GI50 is 5.24 µM (inactive) in the assay on OVCAR-4; 3.15 µM (inactive) with UACC-257; 3.82 µM (inactive) in the assay with SNB-19; 5.41 µM (inactive) in the assay on SF-268; 5.82 µM (inactive) in the assay on SF-539; 1.93 µM (inactive) in the assay on COLO 205. The GI50 with NCI-H23 was 2.12 µM (inactive); in the assay with RPMI-8226, 2.6 µM (inactive); in the assay with IGROV-1, 5.05 µM (inactive); in the assay with MOLT-4, 2.67 µM (inactive); in the assay on 786-0 it was 4.22 µM (inactive); in the assay with SR it was 2.75 µM (inactive). Besides, the GI50 is 3.1 µM (inactive) with A498; 2.05 µM (inactive) in the assay on NCI-H522; 2.99 µM (inactive) with K562; 2.13 µM (inactive) in the assay on HL-60; 3.15 µM (inactive) in the assay on HCT-116; 3.33 µM (inactive) in the assay on HCC 2998.

On to `C=C1C(=O)C23C(O)C1CCC2C12CO[C@]3(O)[C@@H](O)C1C(C)(C)CCC2O` (some centres undefined), for which the GI50 with UACC-257 was 11.6 µM (inactive); in the assay on SNB-19 it was 14.8 µM (inactive); in the assay with SF-268, 13.9 µM (inactive); in the assay with SF-539, 14.7 µM (inactive); in the assay with COLO 205 it was 2.89 µM (inactive); in the assay on NCI-H23, 19.6 µM (inactive). Further, the GI50 is 3.75 µM (inactive) in the assay with RPMI-8226; 15.1 µM (inactive) with IGROV-1; 3.87 µM (inactive) in the assay on MOLT-4; 12.2 µM (inactive) in the assay with 786-0; 4.31 µM (inactive) in the assay on SR; 21.2 µM (inactive) in the assay with A498. For the same compound, the GI50 with NCI-H522 is 0.798 µM (active); with K562 it was 3.67 µM (inactive); in the assay with HL-60 it was 5.01 µM (inactive); in the assay with HCT-15, 11.9 µM; with HCT-116 it was 10.4 µM (inactive); with HCC 2998, 16.1 µM (inactive).

As to `S=C1NC(c2ccccc2)=NC(Cc2ccccc2)(c2ccccc2)N1c1ccccc1` (centres undefined), the GI50 is 42.1 µM (inactive) in the assay with OVCAR-4; > 100 µM (inactive) in the assay with UACC-257; 45.4 µM (inactive) in the assay on SNB-19; > 100 µM (inactive) in the assay with SF-268; > 100 µM (inactive) with SF-539; > 100 µM (inactive) in the assay with COLO 205. Further, the GI50 with NCI-H23, in the assay on RPMI-8226, with IGROV-1, in the assay on MOLT-4, in the assay with 786-0 and with SR was > 100 µM (inactive) each time. Moreover, the GI50 was > 100 µM (inactive) in the assay with A498; > 100 µM (inactive) in the assay on K562; > 100 µM (inactive) in the assay on HL-60; > 100 µM with HCT-15; > 100 µM (inactive) with HCT-116; > 100 µM (inactive) with HCC 2998.

Regarding `O=C1N(Cl)C(=O)C(c2ccc(Cl)cc2)(c2ccc(Cl)cc2)N1Cl`, the GI50 is > 100 µM (inactive) in the assay with OVCAR-4; > 100 µM (inactive) in the assay with SNB-19; > 100 µM (inactive) in the assay on SF-268; > 100 µM (inactive) with SF-539; 41.8 µM (inactive) with COLO 205; > 100 µM (inactive) with NCI-H23. Also, the GI50 was 41.2 µM (inactive) in the assay with RPMI-8226; > 100 µM (inactive) in the assay with IGROV-1; 56.8 µM (inactive) with MOLT-4; 48.3 µM (inactive) in the assay with 786-0; 39.4 µM (inactive) in the assay with SR; > 100 µM (inactive) in the assay with A498. Also, the GI50 was 64.4 µM (inactive) in the assay with NCI-H522; > 100 µM (inactive) with K562; 26.1 µM (inactive) in the assay with HL-60; 91.8 µM in the assay with HCT-15; 72.6 µM (inactive) in the assay on HCT-116; > 100 µM (inactive) in the assay on HCC 2998.

In the case of `CC(=O)Nc1c(C)ccc2c1C(=O)c1ccccc1C2=O`, the GI50 was > 100 µM (inactive) with OVCAR-4; > 100 µM (inactive) with UACC-257; > 100 µM (inactive) in the assay with SF-268; > 100 µM (inactive) in the assay with SF-539; > 100 µM (inactive) in the assay with COLO 205; 65.8 µM (inactive) in the assay with RPMI-8226. For the same compound, the GI50 in the assay on IGROV-1, in the assay with MOLT-4, in the assay with 786-0, in the assay with SR, in the assay with A498 and with NCI-H522 was > 100 µM (inactive) throughout. In addition, the GI50 was > 100 µM (inactive) in the assay on K562; 47.2 µM (inactive) with HL-60; > 100 µM with HCT-15; 91.8 µM (inactive) with HCT-116; > 100 µM (inactive) in the assay with HCC 2998.

Consider `CCN(CC)c1nnc(CCCCCCCCc2nnc(N(CC)CC)o2)o1`, for which the GI50 in the assay on OVCAR-4, in the assay on UACC-257, in the assay on SNB-19, in the assay with SF-268, in the assay on SF-539 and in the assay with NCI/ADR-RES was > 100 µM (inactive) each time. Further, the GI50 in the assay on COLO 205, in the assay with NCI-H23, in the assay on IGROV-1, in the assay on MOLT-4, in the assay with 786-0 and in the assay on A498 was > 100 µM (inactive) in each case. Also, the GI50 with NCI-H522 is > 100 µM (inactive); in the assay on K562 it was > 100 µM (inactive); with HL-60, > 100 µM (inactive); in the assay with HCT-15, > 100 µM; with HCT-116, > 100 µM (inactive).

For `O=C(CCc1nnc2s/c(=C\c3ccc4c(c3)OCO4)c(=O)n12)Nc1cc(Cl)ccc1Cl`, the GI50 in the assay on OVCAR-4 was > 100 µM (inactive); with UACC-257 it was > 100 µM (inactive); in the assay with SNB-19, > 100 µM (inactive); in the assay on SF-268, > 100 µM (inactive); with SF-539, > 100 µM (inactive); in the assay on COLO 205, > 74.1 µM (inactive). The GI50 with NCI-H23 was > 100 µM (inactive); in the assay on RPMI-8226 it was > 78.5 µM (inactive); in the assay on IGROV-1 it was > 100 µM (inactive); in the assay with MOLT-4, > 100 µM (inactive); in the assay with 786-0, > 100 µM (inactive); in the assay with SR, > 100 µM (inactive). The GI50 in the assay on A498 was > 100 µM (inactive); in the assay on NCI-H522 it was > 100 µM (inactive); in the assay on K562 it was > 100 µM (inactive); in the assay with HL-60, > 55.2 µM (inactive); in the assay with HCT-15, > 39.8 µM; with HCT-116 it was > 50.9 µM (inactive). Also, the GI50 with HCC 2998 is > 100 µM (inactive).

With `CNC(=O)NCCCCC(NC(=O)OCc1ccccc1)C(=O)OCc1ccccc1` (centres undefined), the GI50 in the assay with OVCAR-4 was 22.3 µM (inactive); in the assay with UACC-257, 18.6 µM (inactive); in the assay with SNB-19, > 100 µM (inactive); with SF-539, 19 µM (inactive); in the assay on COLO 205 it was 17.7 µM (inactive); with NCI-H23 it was 29.3 µM (inactive). For the same compound, the GI50 was 24.2 µM (inactive) with RPMI-8226; 28.1 µM (inactive) with IGROV-1; 20.8 µM (inactive) in the assay on MOLT-4; 17.5 µM (inactive) in the assay with 786-0; 27.4 µM (inactive) in the assay on SR; > 100 µM (inactive) in the assay with A498. Further, the GI50 in the assay with NCI-H522 is 14.5 µM (inactive); with K562 it was 44.3 µM (inactive); in the assay with HL-60, 16.8 µM (inactive); in the assay on HCT-15 it was > 100 µM; with HCT-116, 51.6 µM (inactive); in the assay on HCC 2998, 20.3 µM (inactive).
